Data as given in PubChem BioAssay AID743508 (Broad Institute, 2014).
Activity calls are given as the source filed them. How the calls were made is not given here.

These compounds were tested against Drosophila melanogaster bursicon receptor LGR2 (rickets) (assay: LGR2 bursicon receptor antagonists, dose response, cell-based, HEK293, CRE-luciferase, beta-gal normalized, dry powder, set 2 (AID 743508)). Conditions: HEK293 LGR2 CRE-luciferase cAMP reporter, antagonist.
`C[C@H]1CCCCO[C@@H](CN(C)S(=O)(=O)c2ccc(Cl)cc2)[C@@H](C)CN([C@@H](C)CO)C(=O)c2cc(NC(=O)NC3CCCCC3)ccc2O1` was tested, and the IC50 was < 35 µM.
In the case of `C[C@H](CO)N1C[C@H](C)[C@H](CN(C)C(=O)Nc2ccc3c(c2)OCO3)OCCCC[C@H](C)Oc2ccc(NC(=O)C3CCCCC3)cc2C1=O`, the IC50 is reported as < 35 µM.
With `C[C@H]1CCCCO[C@@H](CN(C)C(=O)Nc2ccc(F)cc2)[C@@H](C)CN([C@@H](C)CO)C(=O)c2cc(NC(=O)C3CCCCC3)ccc2O1` the IC50 was < 35 µM.
For `C[C@H](CO)N1C[C@H](C)[C@H](CN(C)C(=O)Nc2ccccc2)OCCCC[C@H](C)Oc2ccc(NC(=O)NC3CCCCC3)cc2C1=O`, the IC50 was < 35 µM.
With `C[C@H](CO)N1C[C@H](C)[C@H](CN(C)C(=O)Nc2ccc(C(F)(F)F)cc2)OCCCC[C@H](C)Oc2ccc(NC(=O)NC3CCCCC3)cc2C1=O` the IC50 was < 35 µM.
With `C[C@H](CO)N1C[C@H](C)[C@H](CN(C)C(=O)Nc2cccc3ccccc23)OCCCC[C@H](C)Oc2ccc(NC(=O)C3CCCCC3)cc2C1=O` the IC50 was < 35 µM.
In the case of `C[C@@H]1CCCCO[C@H](CN(C)CC2CCCCC2)[C@H](C)CN([C@H](C)CO)C(=O)c2cc(NS(=O)(=O)c3ccccc3)ccc2O1`, the IC50 is reported as < 35 µM.
`COc1ccc(S(=O)(=O)Nc2ccc3c(c2)C(=O)N([C@@H](C)CO)C[C@H](C)[C@@H](CN(C)C(=O)Nc2cccc4ccccc24)OCCCC[C@H](C)O3)cc1` was tested, and the IC50 was > 35 µM (inactive).
For `COc1ccc(S(=O)(=O)Nc2ccc3c(c2)C(=O)N([C@@H](C)CO)C[C@@H](C)[C@H](CN(C)C(=O)Nc2cccc4ccccc24)OCCCC[C@H](C)O3)cc1`, the IC50 was > 35 µM (inactive).
With `C[C@H]1CCCCO[C@@H](CN(C)C(=O)Nc2ccc3c(c2)OCO3)[C@@H](C)CN([C@@H](C)CO)C(=O)c2cc(NC(=O)NC3CCCCC3)ccc2O1` the IC50 was < 35 µM.
With `C[C@H]1CCCCO[C@H](CN(C)C(=O)Nc2cccc3ccccc23)[C@@H](C)CN([C@@H](C)CO)C(=O)c2cc(NS(=O)(=O)c3cn(C)cn3)ccc2O1` the IC50 was > 35 µM (inactive).
In the case of `C[C@H](CO)N1C[C@H](C)[C@H](CN(C)C(=O)Nc2ccc3c(c2)OCO3)OCCCC[C@H](C)Oc2ccc(NC(=O)NC3CCCCC3)cc2C1=O`, the IC50 is reported as < 35 µM.
With `C[C@H]1CCCCO[C@@H](CN(C)C(=O)Nc2ccc(C(F)(F)F)cc2)[C@@H](C)CN([C@@H](C)CO)C(=O)c2cc(NC(=O)CCC(F)(F)F)ccc2O1` the IC50 was < 35 µM.
With `C[C@H](CO)N1C[C@H](C)[C@H](CN(C)C(=O)Nc2ccc(F)cc2)OCCCC[C@H](C)Oc2ccc(NC(=O)C3CCCCC3)cc2C1=O` the IC50 was < 35 µM.
In the case of `C[C@H](CO)N1C[C@H](C)[C@H](CN(C)C(=O)Nc2ccc(F)cc2)OCCCC[C@H](C)Oc2ccc(NC(=O)Nc3ccc(F)cc3)cc2C1=O`, the IC50 is reported as < 35 µM.
`C[C@@H]1CN([C@@H](C)CO)C(=O)c2cc(NS(C)(=O)=O)ccc2O[C@@H](C)CCCCO[C@@H]1CN(C)Cc1ccc(C(F)(F)F)cc1` was tested, and the IC50 was > 35 µM (inactive).
With `COc1ccc(NC(=O)Nc2ccc3c(c2)C(=O)N([C@H](C)CO)C[C@H](C)[C@H](CN(C)CC2CCCCC2)OCCCC[C@H](C)O3)cc1` the IC50 was > 35 µM (inactive).
For `C[C@H](CO)N1C[C@H](C)[C@H](CN(C)C(=O)Nc2cccc3ccccc23)OCCCC[C@H](C)Oc2ccc(NC(=O)c3ccccc3)cc2C1=O`, the IC50 was < 35 µM.
`COc1ccc(S(=O)(=O)N(C)C[C@@H]2OCCCC[C@H](C)Oc3ccc(NS(=O)(=O)c4ccc(Cl)cc4)cc3C(=O)N([C@@H](C)CO)C[C@@H]2C)cc1` was tested, and the IC50 was < 35 µM.
With `Cc1ccc(S(=O)(=O)Nc2ccc3c(c2)C(=O)N([C@H](C)CO)C[C@@H](C)[C@H](CN(C)S(=O)(=O)c2cccs2)OCCCC[C@@H](C)O3)cc1` the IC50 was > 35 µM (inactive).
For `C[C@H](CO)N1C[C@H](C)[C@H](CN(C)C(=O)Nc2ccccc2)OCCCC[C@H](C)Oc2ccc(NC(=O)Nc3ccccc3)cc2C1=O`, the IC50 was < 35 µM.
In the case of `CC(C)NC(=O)Nc1ccc2c(c1)C(=O)N([C@H](C)CO)C[C@@H](C)[C@H](CN(C)S(C)(=O)=O)OCCCC[C@H](C)O2`, the IC50 is reported as > 35 µM (inactive).
With `C[C@H](CO)N1C[C@H](C)[C@H](CN(C)C(=O)Nc2ccccc2)OCCCC[C@H](C)Oc2ccc(NC(=O)CCC(F)(F)F)cc2C1=O` the IC50 was < 35 µM.
In the case of `C[C@H](CO)N1C[C@H](C)[C@H](CN(C)C(=O)Nc2cccc3ccccc23)OCCCC[C@H](C)Oc2ccc(NC(=O)NC3CCCCC3)cc2C1=O`, the IC50 is reported as < 35 µM.
With `C[C@H](CO)N1C[C@H](C)[C@H](CN(C)C(=O)Nc2cccc3ccccc23)OCCCC[C@H](C)Oc2ccc(NC(=O)CCC(F)(F)F)cc2C1=O` the IC50 was < 35 µM.
For `COc1ccc(NC(=O)N(C)C[C@@H]2OCCCC[C@H](C)Oc3ccc(NC(=O)NC4CCCCC4)cc3C(=O)N([C@H](C)CO)C[C@@H]2C)cc1`, the IC50 was < 35 µM.
With `C[C@H](CO)N1C[C@H](C)[C@H](CN(C)C(=O)Cc2ccccc2)OCCCC[C@H](C)Oc2ccc(NC(=O)Nc3ccc(C(F)(F)F)cc3)cc2C1=O` the IC50 was > 35 µM (inactive).
In the case of `C[C@H](CO)N1C[C@H](C)[C@H](CN(C)C(=O)Nc2ccc(F)cc2)OCCCC[C@H](C)Oc2ccc(NC(=O)NC3CCCCC3)cc2C1=O`, the IC50 is reported as < 35 µM.
`C[C@@H]1CN([C@@H](C)CO)C(=O)c2cc(NC(=O)c3ccncc3)ccc2O[C@@H](C)CCCCO[C@H]1CN(C)C(=O)Nc1cccc2ccccc12` was tested, and the IC50 was > 35 µM (inactive).
`Cc1noc(C)c1S(=O)(=O)Nc1ccc2c(c1)C(=O)N([C@H](C)CO)C[C@H](C)[C@H](CN(C)C(=O)Nc1ccc(F)cc1)OCCCC[C@@H](C)O2` was tested, and the IC50 was > 35 µM (inactive).
In the case of `COc1ccc(NC(=O)N(C)C[C@@H]2OCCCC[C@H](C)Oc3ccc(NC(=O)C4CCCCC4)cc3C(=O)N([C@H](C)CO)C[C@@H]2C)cc1`, the IC50 is reported as < 35 µM.
With `C[C@H]1CCCCO[C@@H](CN(C)C(=O)Nc2ccccc2)[C@@H](C)CN([C@@H](C)CO)C(=O)c2cc(NC(=O)NC3CCCCC3)ccc2O1` the IC50 was < 35 µM.
With `C[C@H](CO)N1C[C@H](C)[C@H](CN(C)C(=O)Nc2ccc(C(F)(F)F)cc2)OCCCC[C@H](C)Oc2ccc(NC(=O)CCC(F)(F)F)cc2C1=O` the IC50 was < 35 µM.
In the case of `COc1ccc(S(=O)(=O)N(C)C[C@@H]2OCCCC[C@H](C)Oc3ccc(NS(=O)(=O)c4ccc(F)cc4)cc3C(=O)N([C@@H](C)CO)C[C@@H]2C)cc1`, the IC50 is reported as < 35 µM.
For `C[C@H](CO)N1C[C@H](C)[C@H](CN(C)C(=O)Nc2ccc(F)cc2)OCCCC[C@H](C)Oc2ccc(NC(=O)Nc3ccccc3)cc2C1=O`, the IC50 was < 35 µM.
With `C[C@H](CO)N1C[C@H](C)[C@H](CN(C)C(=O)Nc2ccccc2)OCCCC[C@H](C)Oc2ccc(NC(=O)C3CCCCC3)cc2C1=O` the IC50 was < 35 µM.
For `COc1ccc(S(=O)(=O)Nc2ccc3c(c2)C(=O)N([C@H](C)CO)C[C@H](C)[C@H](CN(C)S(=O)(=O)c2ccc(F)cc2)OCCCC[C@@H](C)O3)cc1`, the IC50 was > 35 µM (inactive).
`C[C@H](CO)N1C[C@H](C)[C@H](CN(C)C(=O)Nc2ccccc2)OCCCC[C@H](C)Oc2ccc(NC(=O)Nc3ccc4c(c3)OCO4)cc2C1=O` was tested, and the IC50 was < 35 µM.
